Data published in patent publication US6362188B1, “Farnesyl protein transferase inhibitors” (Schering Corporation, priority 1998, dated 2002).

Each compound was assayed on Human tumor cells (assay: Soft Agar Assay (anchorage-independent growth)). Settings: colony outgrowth in soft agar, stated as a range for the group.
Assay type: cell-based
Method: Anchorage-independent growth is a characteristic of tumorigenic cell lines. Human tumor cells can be suspended in growth medium containing 0.3% agarose and an indicated concentration of a farnesyl transferase inhibitor. The solution can be overlayed onto growth medium solidified with 0.6% agarose containing the same concentration of farnesyl transferase inhibitor as the top layer. After the top layer is solidified, plates can be incubated for 10-16 days at 37° C. under 5% CO2 to allow colony outgrowth. After incubation, the colonies can be stained by overlaying the agar with a solution of MTT (3-[4,5-dimethyl-thiazol-2-yl]-2,5-diphenyltetrazolium bromide, Thiazolyl blue) (1 mg/mL in PBS). Colonies can be counted and the IC50's can be determined.

IC50 [nM]	Compound
0.5 to 30	CC(C)(C)OC(=O)N1CCN(C2c3ccc(Cl)cc3CCc3cc(Br)cnc32)CC1C(=O)N1CCCCC1CCCn1ccnc1 (single isomer, unassigned) [Example 145]
0.05 to 30	Cc1[nH]cnc1CC1CN(C(=O)C2CN(C3c4ccc(Cl)cc4CCc4cc(Br)cnc43)CCN2C(=O)OC(C)(C)C)CCS1(=O)=O (single isomer, unassigned) [Example 156]
0.05 to 30	Cc1[nH]cnc1CC1CN(C(=O)C2CN(C3c4ccc(Cl)cc4CCc4cc(Br)cnc43)CCN2C(=O)OC2CCCCC2)CCS1(=O)=O (single isomer, unassigned) [Example 212]
0.05 to 30	Cc1cn(CC2CCCN(C(=O)C3CN(C4c5ncccc5CCc5cccc(Cl)c54)CCN3C(=O)OC3CCCCC3)C2)cn1 (single isomer, unassigned) [Example 391]
0.05 to 30	Cc1nccn1CC1CCCN(C(=O)C2CN(C3c4ncccc4CCc4cccc(Cl)c43)CCN2C(=O)OC(C)(C)C)C1 (single isomer, unassigned) [Example 396]
0.05 to 30	Cc1cn(CC2CCCN(C(=O)C3CN(C4c5ncccc5CCc5cc(Cl)cc(Br)c54)CCN3C(=O)OC(C)(C)C)C2)cn1 (single isomer, unassigned) [Example 407]
0.05 to 30	Cc1cn(CC2CCCCN(C(=O)C3CN(C4c5ccc(Cl)cc5CCc5cccnc54)CCN3C(=O)OC3CCCCC3)C2)cn1 (single isomer, unassigned) [Example 409]
0.05 to 30	Cc1cn(CC2(O)CCCN(C(=O)[C@H]3CN([C@H]4c5ccc(Cl)cc5CCc5cccnc54)CCN3C(=O)OCc3ccccc3)C2)cn1 (single isomer, unassigned) [Example 422]
0.05 to 30	Cc1cn(C[C@]2(O)CCCN(C(=O)[C@H]3CN([C@H]4c5ccc(Cl)cc5CCc5cccnc54)CCN3C(=O)OC3CCCCC3)C2)cn1 (stereo in doubt) [Example 419]
0.5 to 30	Cc1nccn1CC1CCCN(C(=O)C2CN(C3c4ccc(Cl)cc4CCc4cccnc43)CCN2C(=O)NC(C)(C)C)C1 (centres unmarked) [Example 49]
0.5 to 30	Cc1cn(CC2CCCN(C(=O)C3CN(C4c5ccc(Cl)cc5CCc5cccnc54)CCN3C(=O)NC(C)(C)C)C2)cn1 (centres unmarked) [Example 50]

Continued, compound first:

Compound	IC50 [nM]
Cc1cn(CC2CN(C(=O)C3CN(C4c5ccc(Cl)cc5CCc5cccnc54)CCN3C(=O)OC3CCCCC3)CCS2(=O)=O)cn1 (single isomer, unassigned) [47(L)]	0.05 to 30
Cc1nc(C)n(CC2CCCN(C(=O)C3CN(C4c5ccc(Cl)cc5CCc5cccnc54)CCN3C(=O)OC3CCCCC3)C2)c1C (single isomer, unassigned) [47(P)]	0.05 to 30
Cc1cn(CCC2CCCN2C(=O)C2CN(C3c4ccc(Cl)cc4CCc4cccnc43)CCN2C(=O)OC2CCCCC2)cn1 (single isomer, unassigned) [47(S)]	0.05 to 30
Cc1nccn1CC1CN(C(=O)C2CN(C3c4ccc(Cl)cc4CCc4cccnc43)CCN2C(=O)OC(C)(C)C)CCS1(=O)=O (centres unmarked) [35(E)]	0.05 to 30
CC(C)(C)OC(=O)N1CCN(C2c3ccc(Cl)cc3CCc3cc(Br)cnc32)C[C@@H]1C(=O)N1CCC[C@H](Cn2ccnc2)C1 (some centres unmarked) [Example 1]	0.5 to 30
CC(C)(C)OC(=O)N1CCN(C2c3ccc(Cl)cc3CCc3cc(Br)cnc32)CC1C(=O)N1CC[S+]([O-])C(Cn2ccnc2)C1 (centres unmarked) [Example 7]	0.5 to 30
Cc1nccn1C[C@@H]1CCCN(C(=O)[C@H]2CN([C@H]3c4ccc(Cl)cc4CCc4cccnc43)CCN2C(=O)OC(C)(C)C)C1 [Example 30]	0.5 to 30
Cc1cn(C[C@@H]2CCCN(C(=O)[C@H]3CN([C@H]4c5ccc(Cl)cc5CCc5cccnc54)CCN3C(=O)OC(C)(C)C)C2)cn1 [Example 32]	0.5 to 30
CCc1nccn1CC1CCCN(C(=O)C2CN(C3c4ccc(Cl)cc4CCc4cccnc43)CCN2C(=O)OC(C)(C)C)C1 (centres unmarked) [Example 34]	0.5 to 30
